{"source": "paper PMC7801115", "about": "“Preclinical in vitro screening of newly synthesised amidino substituted benzimidazoles and benzothiazoles” (Journal of Enzyme Inhibition and Medicinal Chemistry, 2021)", "key": {"[1]": {"assay": "Plasma protein binding, equilibrium dialysis", "type": "in vitro ADME", "settings": "for fraction unbound at 4 h, 5 µM: equilibrium dialysis 4 h, 37 °C; for recovery at 4 h, 5 µM: recovery in PPB experiment (value in brackets)", "method": "The extent of binding to plasma proteins was assessed using equilibrium dialysis method. Plasma (human and mouse) was spiked with test compounds and three controls (nicardipine and verapamil in both species, acebutolol in human and caffeine in mouse plasma) to obtain final concentration of 5 µM (0.5%DMSO). Hydrated membranes were inserted into equilibrium dialysis unit (HT Dialysis) according to manufacturer’s instructions. The dialysate side was then loaded with appropriate volume of buffer, while the same volume of spiked plasma was added into sample side of the well. Incubation lasted 4 h at 37 °C with gentle shaking. Afterwards, protein precipitation was done by mixing matrix matched aliquot of plasma or buffer with 3 volumes of MeCN/MeOH (2:1) mixture, containing internal standard (diclofenac). After centrifugation (at 4500 rpm, at 4 °C, for 30 min) resulting supernatants were subjected to LC-MS/MS.\nAll ADME samples were analysed on a Sciex API 4000 or Sciex API4500 Triple Quadrupole Mass Spectrometer (Sciex, Framingham, MA, USA) coupled to a UHPLC System (Shimadzu Nexera X2; Shimadzu, Kyoto, Japan). Samples were injected onto an UPLC column (HALO2 C18, 2.1 × 20 mm, 2 µm or Phenomenex Luna Omega Polar C18, 30 × 2.1 mm, 1.6 µm) and eluted with a gradient at temperature of 50 °C. The mobile phase was composed of acetonitrile (with 0.1% formic acid) and 0.1% formic acid in deionised water. A total run time was 1 or 1.5 min, with the flow rate of 0.7 ml/min (under gradient conditions). A positive ion mode with turbo spray, an ion source temperature of 500 °C and a dwell time of 150 ms were utilised for mass spectrometric detection. Multiple reaction monitoring (MRM) was used at the specific transitions for each compound/control tested: compound 5c: 361.9 → 304.9; compound 5d: 344.8 → 287.9; compound 5e: 349.8 → 292.9; compound 5 g: 350.8 → 293.9; compound 5 h: 344.0 → 286.9; compound 6a: 276.9 → 220.0; compound 5 b: 319.0 → 262.0; compound 6 b: 302.1 → 245.1; compound 6c: 344.9 → 288.0; compound 6d: 333.0 → 276.0; compound 6e: 316.1 → 259.0; compound 6f: 327.1 → 270.0; compound 6 g: 377.1 → 320.1; testosterone: 289.3→ 97.1; propranolol: 260.1 → 182.8; caffeine: 195.2 → 138.1; acebutolol: 337.2 → 116.2, nicardipine: 480.2 → 315.0; verapamil: 455.4 → 165.1; amprenavir: 506.2 → 245.4; diclofenac: 296.1 → 213.7 or 296.2 → 215.3; eucatropine: 292.2 → 109.1; benfluorex: 352.1 → 230.3, and warfarin: 309.2 → 163.2"}, "NCI-H358": {"test_system": "NCI-H358", "assay": "BrdU proliferation assay, 2D cell culture", "type": "cell-based", "settings": "Homo sapiens, NCI-H358, 2D cell culture, ±SD, N = 2", "method": "(§1) Cells were grown in 96 well cell star polystyrene plates. 10,000 cells/well were seeded in wells 4 h prior the treatment with different compounds concentrations and incubated for 72 h. A cell viability assay was performed according to the manufacturer’s instruction, using CellTiter 96 aqueous solution, MTS kit (Promega, Madison, WI, USA). After 0.5–2 h of cell incubation with MTS in 2 D cell culture, the plates were read using PE EnVision absorbance at 490 nm. […] Since we prefer homogeneous assays (mix and read procedures) and therefore MTS is more practical (one step less than MTT). MTS is more sensitive and accurate in comparison with MTT assay.\n(§2) Proliferation assay was performed using Cell Proliferation ELISA, BrdU (Sigma, St. Louis, MO, USA). Briefly, 48 h hours after compound addition, 10 µM of BrdU was added to each well and incubated for following 24 h. After incubation, single cell suspension was made for 3 D cell culture in the new 96 well plate. Plates were centrifuged and supernatants were removed from each plate (for 2 D and 3 D cell culture) followed by 60 min incubation at 60° C. The rest of the proliferation assay was performed according to the manufacturer instructions.\n(§3) Calculation of IC50 data, curves and QC analysis is made by using Excel tools and GraphPadPrism software (La Jolla, CA), v. […] QC criteria parameters (Z', S:B, R2, HillSlope) were checked for every IC50 curve."}, "HCC827 [2]": {"test_system": "HCC827", "assay": "BrdU proliferation assay, 2D cell culture", "type": "cell-based", "settings": "Homo sapiens, HCC827, 2D cell culture, ±SD, N = 2", "method": "as §1, §2, §3"}, "[3]": {"assay": "Chromatographic lipophilicity study (Chrom logD7.4)", "type": "physicochemical", "settings": "gradient reverse-phase HPLC (Phenomenex Luna C18 column); pH 7.4, gradient reverse-phase HPLC, from CHI7.4", "method": "In order to determine the lipophilicity range, Chromatographic Hydrophobicity Index was measured by gradient reverse-phase HPLC at physiological pH. Sample working solutions were prepared from 10 mM DMSO stock solutions by dilution with acetonitrile to a final concentration of 1.25 mM and analysed on Agilent 1100 Series liquid chromatography system with HPLC diode-array detector (DAD) coupled with Micromass Quattro micro API mass spectrometer. Samples were injected onto an HPLC column (Phenomenex Luna C18, 50 × 3 mm, 5 µm) and eluted with a gradient at room temperature (sample temperature 15 °C). The mobile phase was composed of 50 mM Ammonium acetate, pH = 7.4 and acetonitrille. A total run time was 5 min, with the flow rate of 1 ml/min (under gradient conditions). The HPLC system was initially calibrated using the calibration set of 10 compounds with literature CHI values. The experimentally determined gradient retention times were plotted against the CHI7.4 values published in the literature resulting in the equation obtained from linear regression analysis. This equation was further used for the calculation of CHI7.4 for test compounds from determined retention times of the main chromatographic peak from UV chromatogram for each compound. The obtained CHI7.4 values were further converted to Chrom log D7.4 as follows: CHI7.4 × 0.0857 − 2."}, "HCC827 [4]": {"test_system": "HCC827", "assay": "BrdU proliferation assay, 3D cell culture", "type": "cell-based", "settings": "Homo sapiens, HCC827, 3D cell culture, ±SD, N = 2", "method": "Cells were grown in 96 well Perfecta 3 D hanging drop plates 5000 cell/well for 4 days until spheres were formed (and checked under the microscope). After sphere formation cells were treated with compounds followed by 72 h incubation. Cell viability assay was performed according to the manufacturer’s instruction, using CellTiter GLO 3 D for 3 D cell culture (Promega); cell incubation was 5 min on the shaker followed by 25 min incubation in the dark. Plates were read using PE EnVision luminescence.\nas §2, §3"}}, "note": "Read-outs that look alike come from different tables or passages of the source."}
{"smiles": "c1ccc2c(c1)cc(-c1nc3cc(C4=NCCCN4)ccc3[nH]1)c1ccccc12", "note": "[Compound 6g, 2-(Phenanthrene-9-yl)-5(6)–(3,4,5,6-tetrahydropyrimidin-1-ium-2-yl)benzimidazole chloride]", "values": [{"measurement": "fraction unbound at 4 h, 5 µM", "setting": "[1]; human plasma, read-out: PPB % bound, Human (converted)", "result": 0.015}, {"measurement": "recovery at 4 h, 5 µM", "setting": "[1]; human plasma", "result": 96, "unit": "%"}, {"measurement": "fraction unbound at 4 h, 5 µM", "setting": "[1]; mouse plasma, read-out: PPB % bound, Mouse (converted)", "result": 0.003}, {"measurement": "recovery at 4 h, 5 µM", "setting": "[1]; mouse plasma", "result": 95, "unit": "%"}, {"measurement": "IC50", "setting": "NCI-H358", "result": "> 50", "unit": "µM"}, {"measurement": "IC50", "setting": "HCC827 [2]", "result": "> 50", "unit": "µM"}, {"measurement": "chromatographic logD", "setting": "[3]", "result": 3.27}, {"measurement": "IC50", "setting": "HCC827 [4]", "result": "> 100", "unit": "µM"}]}
